The values below are quoted from earlier work in patent publication US10232044B2, “Controlled release aural pressure modulator compositions and methods for the treatment of OTIC disorders” (Otonomy, Inc., priority 2008, dated 2019).

Like-named read-outs stand apart in the source and are kept apart here.

One data set has as its system intra-ocular pressure. The note with it: glaucoma patients.
Another data set deals with 8-isoprostaglandin F2α. The note with it: sensorineural hearing loss animal models, noise exposure.
For data set [1], the target named is constitutively activated D136A mutant VP2 receptor (Homo sapiens, UniProt P30518, D136A).

Regarding `CCCCC[C@H](O)/C=C/[C@@H]1[C@@H](C/C=C\CCCC(=O)O)[C@@H](O)C[C@H]1O` [minprostin F2 alpha], the intra-ocular pressure result with intra-ocular pressure is “reduce intra-ocular pressure”.
As for `CC(C)OC(=O)CCC/C=C\C[C@@H]1[C@@H](CC[C@@H](O)CCc2ccccc2)[C@H](O)C[C@@H]1O` [latanoprost], in the data set on intra-ocular pressure, the intra-ocular pressure result is given as “reduce intra-ocular pressure”.
As to `NC(=O)CC[C@@H]1NC(=O)[C@H](Cc2ccccc2)NC(=O)[C@H](Cc2ccc(O)cc2)NC(=O)[C@@H](N)CSSC[C@@H](C(=O)N2CCC[C@H]2C(=O)N[C@@H](CCCN=C(N)N)C(=O)NCC(N)=O)NC(=O)[C@H](CC(N)=O)NC1=O` [VP], the endolymphatic hydrops entry is listed as “induces endolymphatic hydrops” with endolymphatic hydrops (chronic administration, guinea pigs) and “development of endolymphatic hydrops” with endolymphatic hydrops (systemic administration, guinea pig).
Regarding `O=C(O)CCC/C=C\C[C@@H]1[C@H](CNNC(=O)Nc2ccccc2)[C@H]2CC[C@@H]1O2` [SQ29548], in the data set with 8-isoprostaglandin F2α, the “noise-induced changes in cochlear blood flow and vascular conductance” value is listed as “prevents these noise-induced changes”.
Regarding `CCCCCCCC(=O)CC[C@@H]1[C@@H](C/C=C\CCCC(=O)O)[C@@H](O)C[C@H]1O` [unoprostone], the intra-ocular pressure entry in the data set on intra-ocular pressure is reported as “reduce intra-ocular pressure”.
On to `CC(C)OC(=O)CCC/C=C\C[C@@H]1[C@@H](/C=C/[C@@H](O)COc2cccc(C(F)(F)F)c2)[C@H](O)C[C@@H]1O` [travoprost], for which the intra-ocular pressure entry in the data set with intra-ocular pressure was “reduce intra-ocular pressure”.
Take `CCNC(=O)CCC/C=C\C[C@@H]1[C@@H](/C=C/[C@@H](O)CCc2ccccc2)[C@H](O)C[C@@H]1O` [bimtoprost]: the intra-ocular pressure entry with intra-ocular pressure is on record as “reduce intra-ocular pressure”.
For the compound `CCOc1ccc2c(c1)C1(CCC(OCCN3CCOCC3)CC1)C(=O)N2S(=O)(=O)c1ccc(C(=O)NC(C)(C)C)cc1OC` (stereo not drawn) [SR-1211463], in data set [1], the “behaviour at D136A mutant VP2 receptor” value was “inverse agonist”.
